The source of these data is ChEMBL document CHEMBL1134824, “Beta-D-glycosylamidines: potent, selective, and easily accessible 1-glycosidase inhibitors” (Bioorg Med Chem Lett, 2001).

Data set [1] in a line: Compound was evaluated for the selective and competitive inhibition of beta-glucosidase from Aspergillus niger.
Data set [2] is described as follows: Compound was evaluated for the selective and competitive inhibition of Alpha-glucosidase from Bacillus sp. at 2.5 mM; NI = No inhibition.
The nature of data set [3]: Compound was evaluated for the selective and competitive inhibition of Beta-glucosidase from Almond. Also on record: species or system Prunus dulcis.
The nature of data set [4]: Compound was evaluated for the selective and competitive inhibition of Beta-galactosidase from Escherichia coli at 2.5 mM; NI = No inhibition.
Data set [5] is described as follows: Compound was evaluated for the selective and competitive inhibition of Beta-galactosidase from Aspergillus oryzae at 2.5 mM; NI = No inhibition.
Data set [6] is described as follows: Compound was evaluated for the selective and competitive inhibition of Beta-galactosidase from Aspergillus pulverulentus.
The nature of data set [7]: Compound was evaluated for the selective and competitive inhibition of Beta-glucosidase from Trichoderma viride.
The nature of data set [8]: Compound was evaluated for the selective and competitive inhibition of Alpha-glucosidase from Yeast at 2.5 mM. Further details: species or system Saccharomyces cerevisiae; call rule not given here.
A short description of data set [9]: Compound was evaluated for the selective and competitive inhibition of Alpha-glucosidase from Aspergillus niger at 2.5 mM; NI = No inhibition.
A short description of data set [10]: Compound was evaluated for the basicity, pKa of the conjugate acids. Format: physicochemical.
Data set [11] in a line: Compound was evaluated for the selective and competitive inhibition of Alpha-glucosidase from Yeast. Further details: species or system Saccharomyces cerevisiae.
Data set [12] deals with T1, Exo-1,4-beta-xylosidase xlnD (Aspergillus niger, UniProt O00089).
T1 sequence (O00089 whole entry): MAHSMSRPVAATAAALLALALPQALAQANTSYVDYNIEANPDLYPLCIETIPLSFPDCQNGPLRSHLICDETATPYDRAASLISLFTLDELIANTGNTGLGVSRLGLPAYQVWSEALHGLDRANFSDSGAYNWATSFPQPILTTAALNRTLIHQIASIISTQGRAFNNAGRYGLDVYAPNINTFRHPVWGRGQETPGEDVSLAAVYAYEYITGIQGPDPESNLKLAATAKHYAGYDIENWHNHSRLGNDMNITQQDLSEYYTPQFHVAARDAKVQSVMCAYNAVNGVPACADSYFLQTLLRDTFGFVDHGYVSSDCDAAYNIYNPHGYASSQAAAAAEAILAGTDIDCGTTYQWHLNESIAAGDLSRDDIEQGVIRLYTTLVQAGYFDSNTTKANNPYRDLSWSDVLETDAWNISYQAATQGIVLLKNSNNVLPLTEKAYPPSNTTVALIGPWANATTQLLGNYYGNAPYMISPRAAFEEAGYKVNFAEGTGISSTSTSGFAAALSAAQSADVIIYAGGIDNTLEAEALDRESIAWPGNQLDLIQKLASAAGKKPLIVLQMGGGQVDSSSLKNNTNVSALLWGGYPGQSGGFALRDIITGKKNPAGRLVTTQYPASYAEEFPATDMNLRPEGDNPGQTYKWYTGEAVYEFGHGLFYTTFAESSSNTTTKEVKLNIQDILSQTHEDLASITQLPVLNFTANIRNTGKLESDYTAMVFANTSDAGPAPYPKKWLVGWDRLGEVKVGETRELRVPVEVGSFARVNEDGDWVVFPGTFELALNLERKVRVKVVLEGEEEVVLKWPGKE
Put plainly: Compound was evaluated for the selective and competitive inhibition of beta-xylosidase from A. pulverulentus; NI = No inhibition at 2.5 mM. Further details: species or system Aspergillus pulverulentus.

A short description of data set [13]: Compound was evaluated for the selective and competitive inhibition of Beta-galactosidase from Escherichia coli.
Data set [14] in a line: Compound was evaluated for the selective and competitive inhibition of Beta-glucosidase from Almond at 2.5 mM; NI = No inhibition. Also on record: species or system Prunus dulcis.
A short description of data set [15]: Compound was evaluated for the selective and competitive inhibition of Alpha-glucosidase from Aspergillus niger.
Data set [16] in a line: Compound was evaluated for the selective and competitive inhibition of Beta-glucosidase from Aspergillus niger.
Data set [17] can be described thus: Compound was evaluated for the selective and competitive inhibition of Beta-xylosidase from Aspergillus pulverulentus at 2.5 mM; NI = No inhibition.
Data set [18] is described as follows: Compound was evaluated for the selective and competitive inhibition of Alpha-glucosidase from Bacillus sp.
The target in data set [19] is T1, Exo-1,4-beta-xylosidase xlnD. Kind of data set: Compound was evaluated for the selective and competitive inhibition of Beta-xylosidase from Aspergillus pulverulentus.
Data set [20] is described as follows: Compound was evaluated for the selective and competitive inhibition of Alpha-glucosidase from Yeast at 2.5 mM; NI = No inhibition. Further details: species or system Saccharomyces cerevisiae.
Data set [21] can be described thus: Compound was evaluated for the selective and competitive inhibition of Beta-galactosidase from Aspergillus oryzae.

Consider `Br.N=C(Cc1ccccc1)NC1OCC(O)C(O)C1O` (centres undefined), for which the Ki was 11 µM in [1]; “Not Active” in data set [2]; 1100 µM in data set [3]; “Not Active” in data set [4]; “Not Active” in data set [5]; 2500 nM in [6]. Moreover, the figures for the Ki in [7], in [8] and in data set [9] were 13 µM, “No inhibition” and “Not Active”, respectively.

Turning to `NC1OCC(O)C(O)C1O` (centres undefined), the pKa in [10] was found to be 5.6.

For `O=C(Cc1ccccc1)NC1OC(CO)C(O)C(O)C1O` (centres undefined), the Ki in data set [11] is greater than 2500 µM; in data set [2] it was “Not Active”; in data set [12], “No inhibition”; in [5] it was “Not Active”; in data set [13], greater than 2000 µM; in data set [14], “Not Active”. Also, the Ki is 770 µM in [7], greater than 2.5 mM in data set [15] and 770 µM in data set [16].

Regarding `NC1OC(CO)C(O)C(O)C1O` (centres undefined), the pKa in data set [10] stood at 5.6.

In the case of `Br.N=C(Cc1ccccc1)NC1OC(CO)C(O)C(O)C1O` (stereo in doubt; 1a), the inhibitory constant (Ki) in data set [11] was 21 µM; in data set [3], 73 µM; in data set [4], “Not Active”; in [5] it was “Not Active”; in data set [17] it was “Not Active”; in data set [18], greater than 2.5 mM. The Ki in data set [7] was 0.13 µM; in data set [15], greater than 2.5 mM; in data set [9], “Not Active”; in data set [16], 0.094 µM.

Turning to `Br.N=C(Cc1ccccc1)NC1OC(CO)C(O)C(O)C1O` (stereo in doubt; 1b), the Ki is 1 mM in [19]; “Not Active” in data set [20]; “Not Active” in data set [2]; 41 µM in data set [3]; 2400 nM in [21]; 7.8 µM in data set [13]. The values for the Ki in [7], in [15] and in data set [16] were 390 µM, 0.047 mM and 390 µM, respectively.

The term Ki denotes the equilibrium dissociation constant of an inhibitor or competing ligand from its target. Usually pKa stands for the pH at which an ionisable group is half protonated. A lower pKa goes with a group that gives up its proton readily.
